The molecules below were run on RSV Long strain (assay: Viral cytopathic effect (CPE) assay, anti-RSV activity). Details: RSV Long strain (ATCC); cell viability after 6 days, Cell Counting kit-8.
Assay type: cell-based, Respiratory Syncytial Virus
In short: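 Cells (6×10^3/well, DMEM with 10% FBS) were infected next day with RSV Long strain, at a dose giving approximately 80–90% CPE, alongside serial half-log compound dilutions. Viability was read after 6 days by CCK-8 absorbance at 450 nm (reference 630 nm), and EC50 was derived from it.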

SMILES | EC50 [µM]
Cc1ccc2nc(N3CC[S+]([O-])c4ccccc4C3)nc(NCC3(CN)COC3)c2c1 (single isomer, unassigned; (-)) [Example 62-2] | 0.0017

Same assay, conditions: human respiratory syncytial virus, 144 h, RSV Long strain (ATCC); cell viability after 6 days, Cell Counting kit-8

SMILES | EC50 [µM]
Cc1ccc2nc(N3CCS(=O)(=O)c4ccccc4C3)cc(NCCNC3COC3)c2c1 [Example 45-3, N-[2-(1,1-Dioxido-2,3-dihydro-1,4-benzothiazepin-4(5H)-yl)-6-methylquinolin-4-yl]-N′-(oxetan-3-yl)ethane-1,2-diamine] | 0.031
Cc1ccc2nc(N3CCS(=O)(=O)c4ccccc4C3)cc(NCCC3(N)COC3)c2c1 [Example 2-7, N-[2-(3-Aminooxetan-3-yl)ethyl]-2-(1,1-dioxido-2,3-dihydro-1,4-benzothiazepin-4(5H)-yl)-6-methylquinolin-4-amine] | 0.234
Cc1ccc2nc(N3CCS(=O)(=O)c4ccccc4C3)cc(N[C@@H](C)CO)c2c1 [Example 8-2, (2S)-2-{[2-(1,1-Dioxido-2,3-dihydro-1,4-benzothiazepin-4(5H)-yl)-6-methylquinolin-4-yl]amino}propan-1-ol] | 0.817
Cc1ccc2nc(N3CCS(=O)(=O)c4ccccc4C3)cc(NC[C@@H](N)CO)c2c1 [Example 37-2, (2R)-2-Amino-3-{[2-(1,1-dioxido-2,3-dihydro-1,4-benzothiazepin-4(5H)-yl)-6-methylquinolin-4-yl]amino}propan-1-ol] | 0.043
Cc1ccc2nc(N3CCS(=O)(=O)c4ccccc4C3)cc(N3CCC(C(N)=O)C3)c2c1 (stereo not shown) [Example 79, 1-[2-(1,1-Dioxido-2,3-dihydro-1,4-benzothiazepin-4(5H)-yl)-6-methylquinolin-4-yl]pyrrolidine-3-carboxamide] | 2.79
N[C@@H]1CN(c2cc(N3CC[S+]([O-])c4ccccc4C3)nc3ccc(Cl)cc23)C[C@H]1F (relative stereo) [Example 19-7, trans-1-[6-Chloro-2-(1-oxido-2,3-dihydro-1,4-benzothiazepin-4(5H)-yl)quinolin-4-yl]-4-fluoropyrrolidin-3-amine] | 6.86
NC1=NCC(CNc2cc(N3CCCc4ccccc4C3)nc3ccc(Cl)cc23)O1 (stereo not shown) [Example 126-2, N-[(2-Amino-4,5-dihydro-1,3-oxazol-5-yl)methyl]-6-chloro-2-(1,3,4,5-tetrahydro-2H-2-benzazepin-2-yl)quinolin-4-amine] | 0.638
Cc1ccc2nc(N3CCS(=O)(=O)c4ccccc4C3)cc(NCC3COC3)c2c1 [Example 3-53, 2-(1,1-Dioxido-2,3-dihydro-1,4-benzothiazepin-4(5H)-yl)-6-methyl-N-(oxetan-3-ylmethyl)quinolin-4-amine] | 0.261
Cc1ccc2nc(N3CCS(=O)(=O)c4ccccc4C3)cc(NCCN)c2c1 [Example 9-16, N-[2-(1,1-Dioxido-2,3-dihydro-1,4-benzothiazepin-4(5H)-yl)-6-methylquinolin-4-yl]ethane-1,2-diamine] | 0.005
Cc1ccc2nc(N3CCC(F)(F)c4ccccc4C3)cc(NCCCCN)c2c1 [Example 111-10, N-[2-(5,5-Difluoro-1,3,4,5-tetrahydro-2H-2-benzazepin-2-yl)-6-methylquinolin-4-yl]butane-1,4-diamine] | 0.107
Cc1ccc2nc(N3CC[S+]([O-])c4ccccc4C3)nc(NCCCN)c2c1 (stereo not shown) [Example 56-6, N-[6-Methyl-2-(1-oxido-2,3-dihydro-1,4-benzothiazepin-4(5H)-yl)quinazolin-4-yl]propane-1,3-diamine] | 0.002
Cc1ccc2nc(N3CCS(=O)(=O)c4ccccc4C3)cc(NC3CCNCC3)c2c1 [Example 3-39, 2-(1,1-Dioxido-2,3-dihydro-1,4-benzothiazepin-4(5H)-yl)-6-methyl-N-(piperidin-4-yl)quinolin-4-amine] | 0.03
Cc1ccc2nc(N3CCS(=O)(=O)c4ccccc4C3)cc(NCC(C)O)c2c1 (stereo not shown) [Example 5-7, 1-{[2-(1,1-Dioxido-2,3-dihydro-1,4-benzothiazepin-4(5H)-yl)-6-methylquinolin-4-yl]amino}propan-2-ol] | 0.941
NCCNc1cc(N2CCCc3ccccc3C2)nc2ccccc12 [Example 118-9, N-[2-(1,3,4,5-Tetrahydro-2H-2-benzazepin-2-yl)quinolin-4-yl]ethane-1,2-diamine] | 0.202
NCCNc1cc(N2CCCc3ccccc3C2)nc2ccc(OC(F)(F)F)cc12 [Example 118-23, N-[2-(1,3,4,5-Tetrahydro-2H-2-benzazepin-2-yl)-6-(trifluoromethoxy)quinolin-4-yl]ethane-1,2-diamine] | 2.64
Cc1ccc2nc(N3CCS(=O)(=O)c4ccccc4C3)cc(N[C@@H]3CCC[C@H]3N)c2c1 (relative stereo) [Example 15-5, trans-N-[2-(1,1-Dioxido-2,3-dihydro-1,4-benzothiazepin-4(5H)-yl)-6-methylquinolin-4-yl]cyclopentane-1,2-diamine] | 0.74
Cc1ccc2nc(N3CCS(=O)(=O)c4ccccc4C3)cc(N3CCC(NC4COC4)C3)c2c1 (stereo not shown) [Example 45-2, 1-[2-(1,1-Dioxido-2,3-dihydro-1,4-benzothiazepin-4(5H)-yl)-6-methylquinolin-4-yl]-N-(oxetan-3-yl)pyrrolidin-3-amine] | 0.253
CCNC1(CNc2cc(N3CCS(=O)(=O)c4ccccc4C3)nc3ccc(C)cc23)COC1 [Example 43, 2-(1,1-Dioxido-2,3-dihydro-1,4-benzothiazepin-4(5H)-yl)-N-{[3-(ethylamino)oxetan-3-yl]methyl}-6-methylquinolin-4-amine] | 0.017
Cc1ccc2nc(N3CCC(=O)c4ccccc4C3)nc(NCC3(N)COC3)c2c1 [Example 114-1, 2-(4-{[(3-Aminooxetan-3-yl)methyl]amino}-6-methylquinazolin-2-yl)-1,2,3,4-tetrahydro-5H-2-benzazepin-5-one] | 0.007
Cc1ccc2nc(N3CCC(F)(F)c4ccccc4C3)nc(NCC3(N)COC3)c2c1 [Example 116-1, N-[(3-Aminooxetan-3-yl)methyl]-2-(5,5-difluoro-1,3,4,5-tetrahydro-2H-2-benzazepin-2-yl)-6-methylquinazolin-4-amine] | 0.005
Cc1ccc2nc(N3CCS(=O)(=O)c4ccccc4C3)cc(NCCN3CCS(=O)(=O)CC3)c2c1 [Example 5-1, 2-(1,1-Dioxido-2,3-dihydro-1,4-benzothiazepin-4(5H)-yl)-N-[2-(1,1-dioxidothiomorpholin-4-yl)ethyl]-6-methylquinolin-4-amine] | 9.2
Cc1ccc2nc(N3CCS(=O)(=O)c4ccccc4C3)nc(NC3CCNC3)c2c1 (stereo not shown) [Example 135-2, 2-(1,1-Dioxido-2,3-dihydro-1,4-benzothiazepin-4(5H)-yl)-6-methyl-N-(pyrrolidin-3-yl)quinazolin-4-amine] | 0.018
NCC1(CNc2cc(N3CCS(=O)(=O)c4ccccc4C3)nc3ccc(F)cc23)COC1 [Example 17-8, N-{[3-(Aminomethyl)oxetan-3-yl]methyl}-2-(1,1-dioxido-2,3-dihydro-1,4-benzothiazepin-4(5H)-yl)-6-fluoroquinolin-4-amine] | 0.021
Cc1cc2c(NCC3(N)COC3)cc(N3CCS(=O)(=O)c4ccccc4C3)nc2cc1F [Example 3-24, N-[(3-Aminooxetan-3-yl)methyl]-2-(1,1-dioxido-2,3-dihydro-1,4-benzothiazepin-4(5H)-yl)-7-fluoro-6-methylquinolin-4-amine] | 0.021

Reference: patent US8871756B2 (Hoffmann-La Roche Inc., priority 2011, dated 2014)
